Experiments:
[1] = target: T1, Alpha-2C adrenergic receptor (Homo sapiens, UniProt P18825); test: DRUGMATRIX: Adrenergic Alpha-2C radioligand binding (ligand: [3H] MK-912); type: cell membranes, Sf9, Membrane; as to IC50: call rule not given here
T1 sequence (P18825 whole entry): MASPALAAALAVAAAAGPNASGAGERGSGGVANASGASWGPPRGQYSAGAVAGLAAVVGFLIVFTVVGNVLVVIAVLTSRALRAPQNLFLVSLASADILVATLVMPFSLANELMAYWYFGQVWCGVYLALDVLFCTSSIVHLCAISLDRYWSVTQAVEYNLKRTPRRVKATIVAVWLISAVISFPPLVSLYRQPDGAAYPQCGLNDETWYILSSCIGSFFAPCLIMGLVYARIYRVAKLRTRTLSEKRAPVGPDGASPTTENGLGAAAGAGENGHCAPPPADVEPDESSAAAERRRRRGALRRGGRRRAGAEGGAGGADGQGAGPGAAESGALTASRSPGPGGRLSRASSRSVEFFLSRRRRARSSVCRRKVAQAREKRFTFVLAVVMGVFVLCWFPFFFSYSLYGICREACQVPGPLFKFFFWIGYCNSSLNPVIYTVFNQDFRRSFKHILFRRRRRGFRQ

[2] = target: T2, Type-2 angiotensin II receptor (Homo sapiens, UniProt P50052); test: biochemical; type: cell-based, CHO-K1; also: in other assays of this panel Not Active means under 50% inhibition at 10 µM
T2 sequence (P50052 whole entry): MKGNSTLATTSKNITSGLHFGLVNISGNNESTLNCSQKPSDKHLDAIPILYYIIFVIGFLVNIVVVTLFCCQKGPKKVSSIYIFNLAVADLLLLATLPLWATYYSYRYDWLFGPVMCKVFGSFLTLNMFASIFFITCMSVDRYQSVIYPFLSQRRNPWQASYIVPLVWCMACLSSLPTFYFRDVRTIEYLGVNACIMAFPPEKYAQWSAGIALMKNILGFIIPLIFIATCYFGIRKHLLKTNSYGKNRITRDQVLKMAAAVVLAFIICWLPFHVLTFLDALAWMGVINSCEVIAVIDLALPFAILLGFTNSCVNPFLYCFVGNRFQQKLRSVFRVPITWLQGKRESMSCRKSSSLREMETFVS

[3] = target: T3, Polyunsaturated fatty acid lipoxygenase ALOX15 (Oryctolagus cuniculus, UniProt P12530); test: biochemical; type: tissue-based, Reticulocytes; settings: reticulocytes;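 also: inhibition of 15-lipoxygenase enzyme activity measured with linoleic acid as the substrate; in other assays of this panel Not Active means under 50% inhibition at 10 µM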
T3 sequence (P12530 whole entry): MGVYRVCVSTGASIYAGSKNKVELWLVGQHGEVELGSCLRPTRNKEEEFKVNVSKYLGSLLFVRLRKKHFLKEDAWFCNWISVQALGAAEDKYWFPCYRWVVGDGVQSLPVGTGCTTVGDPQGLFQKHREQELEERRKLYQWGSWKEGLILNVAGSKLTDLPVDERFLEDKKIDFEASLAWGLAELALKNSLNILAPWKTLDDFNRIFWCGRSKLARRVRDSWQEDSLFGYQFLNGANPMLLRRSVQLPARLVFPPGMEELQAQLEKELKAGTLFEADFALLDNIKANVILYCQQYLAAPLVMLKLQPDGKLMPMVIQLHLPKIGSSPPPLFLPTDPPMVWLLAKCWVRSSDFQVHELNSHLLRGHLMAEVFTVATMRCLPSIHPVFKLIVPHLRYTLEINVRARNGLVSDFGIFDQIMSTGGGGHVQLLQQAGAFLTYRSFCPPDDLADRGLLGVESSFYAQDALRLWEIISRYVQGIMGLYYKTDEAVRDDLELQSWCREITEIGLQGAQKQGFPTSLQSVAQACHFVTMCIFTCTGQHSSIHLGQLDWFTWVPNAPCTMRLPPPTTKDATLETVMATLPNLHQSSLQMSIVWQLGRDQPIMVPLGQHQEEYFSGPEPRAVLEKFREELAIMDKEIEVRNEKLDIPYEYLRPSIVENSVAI

[4] = target: Protein kinase C alpha type (Homo sapiens, UniProt P17252); type: cell-based; settings: sf9;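 also: inhibition of PKCalpha kinase activity measured in an enzyme assay with histone as the phosphorylation substrate; in other assays of this panel Not Active means under 50% inhibition at 10 µM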
Cytochrome P450 1A2 = target: T4, Cytochrome P450 1A2 (Homo sapiens, UniProt P05177); settings: bti-tn-5b1-4; also: in other assays of this panel Not Active means under 50% inhibition at 10 µM
T4 sequence (P05177 whole entry): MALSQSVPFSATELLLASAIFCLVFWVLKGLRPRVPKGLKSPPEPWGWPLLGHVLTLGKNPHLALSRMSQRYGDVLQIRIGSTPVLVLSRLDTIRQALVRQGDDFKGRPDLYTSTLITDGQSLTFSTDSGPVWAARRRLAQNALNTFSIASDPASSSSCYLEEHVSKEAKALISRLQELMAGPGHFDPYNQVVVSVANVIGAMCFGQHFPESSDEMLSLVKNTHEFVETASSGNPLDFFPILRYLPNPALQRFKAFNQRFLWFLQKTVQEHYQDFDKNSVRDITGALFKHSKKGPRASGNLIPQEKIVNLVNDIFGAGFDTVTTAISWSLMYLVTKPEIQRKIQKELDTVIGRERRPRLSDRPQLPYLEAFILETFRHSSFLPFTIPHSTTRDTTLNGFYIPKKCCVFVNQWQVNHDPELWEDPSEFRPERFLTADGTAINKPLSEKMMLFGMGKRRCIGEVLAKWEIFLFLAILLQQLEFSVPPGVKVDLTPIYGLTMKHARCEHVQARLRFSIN

Estrogen receptor beta = Estrogen receptor beta (Homo sapiens, UniProt Q92731); settings: sf9; also: in other assays of this panel Not Active means under 50% inhibition at 10 µM
[5] = target: C-C chemokine receptor type 2 (Homo sapiens, UniProt P41597); type: cell membranes, Membrane; settings: cho-k1; also: in other assays of this panel Not Active means under 50% inhibition at 10 µM
C-C chemokine receptor type 2, sequence (P41597 whole entry): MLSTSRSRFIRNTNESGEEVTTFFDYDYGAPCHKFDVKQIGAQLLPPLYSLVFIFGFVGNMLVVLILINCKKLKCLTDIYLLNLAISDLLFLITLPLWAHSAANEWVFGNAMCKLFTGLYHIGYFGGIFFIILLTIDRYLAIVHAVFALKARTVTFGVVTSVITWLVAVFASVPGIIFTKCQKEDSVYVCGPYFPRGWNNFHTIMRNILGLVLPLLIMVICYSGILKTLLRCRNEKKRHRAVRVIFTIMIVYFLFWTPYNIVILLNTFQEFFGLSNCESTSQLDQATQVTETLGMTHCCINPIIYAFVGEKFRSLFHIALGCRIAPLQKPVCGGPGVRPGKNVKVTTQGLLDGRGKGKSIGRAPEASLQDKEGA

Estrogen receptor beta, sequence (Q92731 whole entry): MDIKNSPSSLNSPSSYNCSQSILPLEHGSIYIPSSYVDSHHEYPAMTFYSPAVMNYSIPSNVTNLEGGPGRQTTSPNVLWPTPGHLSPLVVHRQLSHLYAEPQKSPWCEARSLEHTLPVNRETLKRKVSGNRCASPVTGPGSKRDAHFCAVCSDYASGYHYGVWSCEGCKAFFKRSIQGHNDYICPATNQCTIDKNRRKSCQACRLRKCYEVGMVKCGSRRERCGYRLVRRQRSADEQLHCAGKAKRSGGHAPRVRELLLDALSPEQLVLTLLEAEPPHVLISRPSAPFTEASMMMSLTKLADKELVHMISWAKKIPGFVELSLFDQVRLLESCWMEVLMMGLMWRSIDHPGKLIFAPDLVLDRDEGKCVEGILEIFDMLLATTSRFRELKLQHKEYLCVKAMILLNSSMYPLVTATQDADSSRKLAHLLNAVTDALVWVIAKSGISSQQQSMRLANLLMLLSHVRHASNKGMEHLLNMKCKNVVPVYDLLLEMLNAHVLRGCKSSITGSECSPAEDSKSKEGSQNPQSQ

| Structure (SMILES) | IC50 ([1]; sf9) | IC50 ([2]; cho-k1) | IC50 [3] | IC50 [4] | IC50 (Cytochrome P450 1A2) | Ki (Cytochrome P450 1A2) | IC50 (Estrogen receptor beta) | IC50 [5] | IC50 ([2]; read-out: IC50) [µM] | Ki ([2]; read-out: Ki) [µM] | IC50 ([1]; read-out: IC50) [µM] | Ki ([1]; read-out: Ki) [µM] |
| --- | --- | --- | --- | --- | --- | --- | --- | --- | --- | --- | --- | --- |
| CCCCC(=O)N(Cc1ccc(-c2ccccc2-c2nnn[nH]2)cc1)[C@H](C(=O)O)C(C)C | Not Active | Not Active | Not Active | Not Active | Not Active | Not Active | Not Active | – | – | – | – | – |
| O=C(O)COc1ccc(C(=O)c2cccs2)c(Cl)c1Cl | Not Active | Not Active | Not Active | Not Active | Not Active | Not Active | Not Active | Not Active | – | – | – | – |
| CN1[C@@H]2CC[C@H]1C[C@@H](OC(c1ccccc1)c1ccccc1)C2 [BENZTROPINE] | – | Not Active | Not Active | Not Active | Not Active | Not Active | Not Active | Not Active | – | – | – | – |
| C[C@@](Cc1ccc(O)c(O)c1)(NN)C(=O)O.O [CARBIDOPA] | Not Active | Not Active | Not Active | Not Active | Not Active | Not Active | – | Not Active | – | – | – | – |
| CN1CCN(C2=Nc3cc(Cl)ccc3Nc3ccccc32)CC1 [CLOZAPINE] | – | Not Active | Not Active | Not Active | Not Active | Not Active | Not Active | Not Active | – | – | – | – |
| CC(C)NC[C@@H](O)COc1cccc2ccccc12 [DEXPROPRANOLOL] | Not Active | Not Active | Not Active | Not Active | Not Active | Not Active | Not Active | Not Active | – | – | – | – |
| CC(C)NC[C@H](O)COc1cccc2ccccc12 [LEVOPROPRANOLOL] | Not Active | Not Active | Not Active | Not Active | Not Active | Not Active | Not Active | Not Active | – | – | – | – |
| O=C(O)CCCCC1CCSS1 (stereo not drawn) [LIPOIC ACID, ALPHA] | Not Active | Not Active | Not Active | Not Active | Not Active | Not Active | Not Active | Not Active | – | – | – | – |
| CN(C)C(=O)C(CCN1CCC(O)(c2ccc(Cl)cc2)CC1)(c1ccccc1)c1ccccc1 [LOPERAMIDE] | Not Active | Not Active | Not Active | Not Active | Not Active | Not Active | Not Active | Not Active | – | – | – | – |
| Clc1ccc(COC(Cn2ccnc2)c2ccc(Cl)cc2Cl)c(Cl)c1 (centres undefined) [MICONAZOLE] | Not Active | – | Not Active | Not Active | Not Active | Not Active | Not Active | Not Active | 24 | 7.78 | – | – |
| Oc1ccc2c3c1O[C@H]1[C@@H](O)CC[C@@]4(O)[C@@H](C2)N(CC2CCC2)CC[C@]314 [NALBUPHINE] | Not Active | Not Active | Not Active | Not Active | – | – | Not Active | Not Active | – | – | – | – |
| C[C@]12C=CC(=O)C=C1CC[C@@H]1[C@@H]2C(=O)C[C@@]2(C)[C@H]1CC[C@]2(O)C(=O)CO [PREDNISONE] | Not Active | Not Active | Not Active | Not Active | – | – | Not Active | Not Active | – | – | – | – |
| OCCOCCN1CCN(C2=Nc3ccccc3Sc3ccccc32)CC1 [QUETIAPINE] | – | Not Active | Not Active | Not Active | Not Active | Not Active | Not Active | Not Active | – | – | – | – |
| COC(=O)[C@H]1[C@H]2C[C@@H]3c4[nH]c5cc(OC)ccc5c4CCN3C[C@H]2C[C@@H](OC(=O)c2cc(OC)c(OC)c(OC)c2)[C@@H]1OC [RESERPINE] | Not Active | Not Active | Not Active | Not Active | Not Active | Not Active | – | Not Active | – | – | – | – |
| O=C(O)c1ccccc1O [SALICYLIC ACID] | Not Active | Not Active | Not Active | Not Active | Not Active | Not Active | – | Not Active | – | – | – | – |
| C[S+]([O-])c1ccc(-c2nc(-c3ccncc3)c(-c3ccc(F)cc3)[nH]2)cc1 (centres undefined) [SB-203580] | Not Active | Not Active | Not Active | Not Active | – | – | Not Active | Not Active | – | – | – | – |
| CC1CCC(NC(=O)N(CCCl)N=O)CC1 (centres undefined) [SEMUSTINE] | Not Active | Not Active | Not Active | Not Active | Not Active | Not Active | Not Active | Not Active | – | – | – | – |
| O=C1C[C@@H]2OCC=C3CN4CC[C@]56c7ccccc7N1[C@H]5[C@H]2[C@H]3C[C@H]46 [STRYCHNINE] | Not Active | Not Active | Not Active | Not Active | Not Active | Not Active | – | Not Active | – | – | – | – |
| C[N+](C)(C)CCOC(=O)CCC(=O)OCC[N+](C)(C)C.[Cl-].[Cl-] [SUCCINYLCHOLINE CHLORIDE] | Not Active | Not Active | Not Active | Not Active | Not Active | Not Active | Not Active | Not Active | – | – | – | – |
| Nc1ccc(S(=O)(=O)NC(=O)c2ccccc2)cc1 [SULFABENZAMIDE] | Not Active | Not Active | Not Active | Not Active | Not Active | Not Active | Not Active | Not Active | – | – | – | – |
| CCCCCCCCNC(C)C(O)c1ccc(SC(C)C)cc1 (centres undefined) [SULOCTIDIL] | – | Not Active | Not Active | Not Active | – | – | Not Active | Not Active | – | – | 3.45 | 0.501 |
| O=c1[nH]c(=O)n(C2CCCO2)cc1F (centres undefined) [TEGAFUR] | Not Active | Not Active | Not Active | Not Active | Not Active | Not Active | Not Active | Not Active | – | – | – | – |
| CC(=N)S [THIOACETAMIDE] | Not Active | Not Active | Not Active | Not Active | Not Active | Not Active | Not Active | Not Active | – | – | – | – |
| Cc1ccc(C(=O)c2ccc(CC(=O)O)n2C)cc1 [TOLMETIN] | Not Active | Not Active | Not Active | Not Active | Not Active | Not Active | Not Active | Not Active | – | – | – | – |
| CN1CCN(CCCN2c3ccccc3Sc3ccc(C(F)(F)F)cc32)CC1 [TRIFLUOPERAZINE] | Not Active | Not Active | Not Active | Not Active | – | – | Not Active | Not Active | – | – | – | – |

Source: ChEMBL document CHEMBL1909046, “DrugMatrix in vitro pharmacology data”
